From patent US9771563B2, “Chemical approaches for generation of induced pluripotent stem cells” (The Scripps Research Institute, priority 2008, dated 2017)

Assays:
[1] = tested on: MEFs (129, ROSA26+/-/OG2+/-); test: Reprogramming of MEFs transduced with Oct4/Sox2/Klf4 or Oct4/Klf4 with CHIR99021; assay type: cell-based, mouse
Procedure: Cell Culture and Viral Transduction: MEFs were derived from 129S2/SvPasCrlf and ROSA26^+/−/OG2^+/− mice according to the protocol reported on WiCell Research Institute website: “Introduction to human embryonic stem cell culture methods”. ROSA26^+/−/OG2^+/− heterozygous transgenic mice carry GFP reporter gene under the control of the Oct4 promoter (Oct4-GFP) and the ubiquitously expressed neo/lacZ transgene [Do J T, Scholer H R, Stem Cells, 22:941-949 (2004)]. Animal experiments were performed according to the Animal Protection Guidelines of the Max Planck Institute for Biomolecular Research, Germany. MEFs were transduced by Oct4, Klf4 and Sox2 three factors, or two-factor combinations of the pMXs-based retroviruses encoding mouse Oct4, Klf4 and Sox2 (Addgene) as previously described [Takahashi K, Yamanaka S, Cell, 126:663-676 (2006)]. […] MEFs transduced with Oct4/Klf4/Sox2 (lx 10^4 cells/well together with 10^5 cells/well CF1 feeders in 6-well plates) were then treated with GSK-3 inhibitor CHIR99021 (Stemgent) for two weeks, and EGFP positive colonies were picked up at the third week after treatment. MEFs transduced with Oct4/Klf4 (lx 10^5 cells/well in 6-well plates) were treated with 10 μM CHIR99021 for four weeks, GFP positive colonies were picked up and expanded at the fourth to fifth week after treatment.

MEFs = test: Real-time PCR of pluripotency genes in untransduced MEFs after small molecule treatment; assay type: cell-based, mouse; conditions: 10 μM CHIR99021, three days
Procedure: To detect the expression of pluripotency genes by MEFs and NHEKs that were treated with small molecules, untransduced MEFs and NHEKs were treated for three days in mESC growth medium with 10 μM CHIR99021 or in hES cell medium with either combination of 10 μM CHIR99021 and 2 μM Parnate or combination of 10 μM CHIR99021, 2 μM Parnate, 0.5 μM PD0325901 and 2 μM SB431542. For the semi-quantitative and quantitative RT-PCR analyses, RNA was extracted from miPSCs-OK, hiPSCs-OK, MEFs, treated MEFs and treated NHEKs using the RNeasy Plus Mini Kit in combination with QIAshredder (Qiagene). Reverse transcription was performed with 1 μg RNA using iScript™ cDNA Synthesis Kit (BioRad). […] Real-time PCR was carried out using iQ SYBR Green Supermix (BioRad). […] The expression of genes of interest was normalized to that of GAPDH in all samples.

mouse fibroblasts = test: Reprogramming of mouse fibroblasts with exogenous poly-Arg transcription factor proteins; assay type: cell-based; conditions: cells incubated with transcription factor proteins plus agent
Procedure: Mouse fibroblasts were grown in mESC medium supplemented with 8 μg/ml of either Oct4/Sox2/Klf4 or Oct4/Sox2/Klf4/Myc (all proteins comprising poly-Arg as described above) for 6-8 hours, washed, and incubated for 2-3 days in mESC media without the above-listed transcription factors. This (4-12 hours with, 1-3 days without) was repeated a number (1, 2, 3, 4, or more) of times and then the cells were cultured in mESC for two weeks.
Mouse fibroblasts were grown in mESC growth medium [Knockout DMEM (Invitrogen) supplemented with 10% ES-FBS+10% KSR, 0.1 mM 2-ME, 1% Glutamax, 1% Non-essential amino acids, 1% EmbryoMax ESC Qualified Nucleosides (Millipore), and 10^3 units/ml LIF (ESGRO, Chemicon International)] supplemented with 8 μg/ml of Oct4/Sox2/Klf4/Myc (all four transcription factors are tagged with poly-Arg […]; SEQ ID NO:2) for 4-12 hours, followed by culturing the cells in the absence of the Oct4/Sox2/Klf4/Myc polypeptides for one day. This procedure was repeated 4 times. The cells were then cultured in mESC medium for another two weeks. iPSC clones were detected by colony morphology and expression of pluripotency markers. An intermediate iPSC clone, which expresses ALP but not Oct4 (Oct4), was dissociated with Trypsin-EDTA. The clone was then expanded by continuous culturing with regular mESC medium or medium supplemented with 0.5 μM PD0325901, 3 μM CHIR99021, 0.5 μM A-83-01. The number of Oct4-positive colonies were counted 2 weeks after small molecule treatment (FIG. 14).

[2] = tested on: Normal Human Epidermal Keratinocytes (NHEKs); test: Reprogramming of lentivirally transduced NHEKs (TRA-1-81 colonies); assay type: cell-based; conditions: 0.25 mM NaB vs 0.5 mM VPA
Excerpt: Among several readily available primary human somatic cell types, keratinocytes that can be easily isolated from human skin or hair follicle represent an attractive cell source for reprogramming, because they endogenously express Klf4 and cMyc, and were reported to be reprogrammed more efficiently using the conventional four TFs or three TFs (without Myc) (Aasen et al., Nat Biotechnol 26, 1276-1284 (2008); Maherali et al., Cell Stem Cell 3, 340-345 (2008)). […] Furthermore, we have shown that such dual pathway inhibition could also enhance reprogramming of human keratinocytes by two exogenous TFs (i.e. OK) with two small molecules, Parnate (an inhibitor of lysine-specific demethylase 1) and CHIR99021 (a GSK3 inhibitor) (Li et al., Stem Cells 27, 2992-3000 (2009)). However, such 2-TFs reprogramming process was very inefficient and complex (e.g. involving two exogenous TFs and four chemicals), and reprogramming with even one less TF appeared daunting. Toward this end, we developed a step-wise strategy in refining reprogramming condition and identifying new reprogramming chemical entities. […]

`Cc1c[nH]c(-c2cnc(NCCNc3ccc(C#N)cn3)nc2-c2ccc(Cl)cc2Cl)n1` [CHIR99021] was tested. Which “GFP positive colonies out of 10^5 OG2 MEFs” value ([1]; Oct4/Klf4 transduction, 10 μM CHIR99021, 4-5 weeks) did it give?
The value was “about six”.

And the “reprogramming efficiency (GFP-positive colonies)” value ([1]; Oct4/Sox2/Klf4-transduced MEFs, about 10 μM, from 0.03-0.08% without)?
The value was 0.2-0.4 % of transduced MEFs.

What about the “number of AP-positive mESC-like colonies” value ([1]; Oct4/Sox2/Klf4 transduced MEFs, two weeks treatment, staining at third week) of the same compound?
Its value is “significantly increased the number of alkaline phosphase (AP)-positive mESC-like colonies in a dose-dependent manner”.

And the “expression of Sox2 and Oct4 (real-time PCR)” value (MEFs)?
Its value is “did not induce the expression of Sox2 and Oct4 in MEFs”.

And the “efficiency and speed of development of pluripotent cells” value (mouse fibroblasts)?
Its value is “improved efficiency and speed of development of pluripotent cells”.

Which “generation of iPSCs under OK condition” value [2] does the source give for `CCCC(=O)[O-].[Na+]` [NaB, sodium butyrate] here?
The value was “much more reliable and efficient than the previously reported 0.5 mM VPA”.
